The values below come from patent US20150352038A1, “A DOSAGE FORM FOR ADMINISTERING AN ACTIVE PRINCIPLE FOR ACCELERATED SLEEP INDUCTION AND/OR FOR TREATING SLEEP DISORDERS AND/OR FOR TREATING A CENTRAL NERVOUS SYSTEM DISORDER” (priority 2013, published 2015).

Data set [1] is described as follows: Time to onset of calming / sedative / sleep-inducing effect. As to conditions: hydro-alcoholic solution of the invention via the oral mucous membrane. It is filed as in vivo.
The conditions of data set [2]: oral; % of the ingested/administered dose; cited from earlier work.
For data set [3] the following is noted: cited from earlier work.
The conditions of data set [4]: cited from earlier work. The source holds these as a separate data set.
The test system of data set [5] is plasma proteins. As to conditions: cited from earlier work; for bonded to plasma proteins: in the blood stream.
Data set [6] can be described thus: Bioavailability after oral administration. It is filed as in vivo.
Data set [7] is described as follows: Stability in alcohol solution. It is filed as physicochemical. As to conditions: degree of alcohol starting from 35°. As to the method: In the studies, the doses normally administered orally, at bedtime, varied over the range 0.3 mg to 5 mg. High doses of Melatonin may exert a negative paradoxical action that propagates to phases that are not phases of responding to Melatonin.

For data set [8] the following is noted: administered orally, doses of 5 mg or 10 mg; cited from earlier work.

Converted amounts (≈) assume the structure as drawn. Counter-ions that a name gives are not always drawn. A value given as a limit tells only on which side of the number the result lay.

Turning to `CN(C)CCOC(C)(c1ccccc1)c1ccccn1` (stereo not shown) [Doxylamine], the “time until calming effect / drowsiness appears, in words” value in data set [1] is “within a few minutes”. Moreover, the “bioavailability when taken orally” value in data set [2] is 24.7%. For the same compound, the “solubility in ethanol, in words” value in data set [3] (ethanol) is “easily soluble in ethanol”. In addition, the “half-life in the organism” value in data set [4] (in vivo) is “around 3.5 h”.

For `CN1CCC(=C2c3ccccc3C=Cc3ccccc32)CC1` [Cyproheptadine], the “bioavailability when taken orally” value in data set [2] is listed as about 25%. Further, in data set [4] (compared with Doxylamine), the “half-life, compared in words” value is on record as “longer than the half-life of Doxylamine”.

As for `Cc1ccc(-c2nc3ccc(C)cn3c2CC(=O)N(C)C)cc1` [Zolpidem tartrate], in data set [3], the “solubility in water and in ethanol/alcohol, in words” value is “less soluble in water and in ethanol than Zolpidem base”.

On to “(S)—N-(2-(1,6,7,8-tetrahydro-2H-indeno-(5,4)furan-8-yl)ethyl)propionamide [Ramelteon]”, for which the “bonded to plasma proteins” value in data set [5] was 82%. Besides, the “fraction of the orally administered dose destroyed / lost” value in data set [6] is 98.2%. In addition, the “bioavailability when taken orally” value in data set [2] was 1.8%. Further, in data set [3] (ethanol), the “solubility in ethanol, in words” value is given as “very easily soluble in ethanol”.

As for `Cc1ncc2n1-c1ccc(Cl)cc1C(c1ccccc1F)=NC2` [Midazolam], the “bonding to plasma proteins, in words” value in data set [5] is reported as “bonds strongly to plasma proteins”. Further, the “bioavailability when taken orally” value in data set [2] is listed as 36%. Moreover, in data set [3] (ethanol), the “solubility in ethanol, in words” value is given as “freely soluble in ethanol”. In addition, the solubility in water in data set [3] (water) is recorded as 0.024 mg/mL (≈ 0.0737 mM).

As for `COc1ccc2[nH]cc(CCNC(C)=O)c2c1` [Melatonin, N-Acetyl-5-Methoxytryptamine], the “stability in alcohol solution” value in data set [7] was “increases with increasing degree of alcohol”. In addition, the “bioavailability when taken orally” value in data set [2] was about 15%. Further, the “solubility in ethanol, in words” value in data set [3] (ethanol) is reported as “very soluble in ethanol”. Besides, in data set [4] (in vivo), the half-life entry is on record as “greater than 50 min”.

Turning to `Cc1nnc2n1-c1sc(Br)cc1C(c1ccccc1Cl)=NC2` [Brotizolam], the “bioavailability when taken orally” value in data set [2] is listed as “around 50%”. Further, the “half-life in the organism” value in data set [4] (in vivo) is reported as 4.4 h.

Turning to `CN1CCN(C(=O)O[C@H]2c3nccnc3C(=O)N2c2ccc(Cl)cn2)CC1` [Eszopiclone], in data set [5], the “bonded to plasma proteins” value was 60%. Further, the “half-life in the organism” value in data set [4] (in vivo) is given as 6 h.

As for `COc1ccc2cccc(CCNC(C)=O)c2c1` [Agomelatine], the “fraction of the orally administered dose destroyed / lost” value in data set [6] is 95%. In addition, the “bioavailability when taken orally” value in data set [2] is “less than 5%”. Also, the “half-life in the organism” value in data set [4] (in vivo) is reported as “less than 2 h”.

Turning to `CN1CCN(C(=O)OC2c3nccnc3C(=O)N2c2ccc(Cl)cn2)CC1` (stereo not shown) [Zopiclone], the “solubility in water and in ethanol/alcohol, in words” value in data set [3] is “not very soluble in water and alcohol”.

In the case of `Cc1ccc(-c2nc3ccc(C)cn3c2CC(=O)N(C)C)cc1` [Zolpidem], the “bonded to plasma proteins” value in data set [5] is on record as 92%. In addition, the “time until calming effect / drowsiness appears, in words” value in data set [1] was “within only a few minutes”. The “time until effect is perceptible” value in data set [8] was “at least 15 min”. Further, the “bioavailability when taken orally” value in data set [2] was at most 70%. Besides, in data set [3] (ethanol), the solubility in ethanol was 50 mg/mL (≈ 163 mM) and the “solubility in ethanol, in words” value is on record as “quite soluble in ethanol”. Besides, the “half-life in the organism” value in data set [4] (in vivo) was 2 to 3 h.
